Source: PMC9503459, “Antifungal Activity, Structural Stability, and Immunomodulatory Effects on Human Immune Cells of Defensin from the Lentil Lens culinaris” (Membranes, 2022)
No end group written: not given here.

Test system: CD8+ T cytotoxic cells
Assay: Cytokine response by multiplex xMAP, CD8+ T cytotoxic cells
Assay type: cell-based, human
Conditions: 2 µM, 24 h
Method: Colorectal adenocarcinoma Caco-2 cell line (ATCC HTB-37) was cultured in complete DMEM/F12 (1:1) medium containing 10% fetal bovine serum (FBS, Gibco) and 1X antibiotic-antimycotic solution (1XAAS, Invitrogen, Waltham, MA, USA). The acute monocytic leukemia THP-1 line (ATCC TIB-202) was cultured in complete RPMI-1640 medium, containing 10% FBS, 1XAAS, and […]. THP-1 cells were differentiated into pro-inflammatory macrophages (Mφ1) with phorbol 12-myristate 13-acetate (Sigma-Aldrich) for 24 h and subsequently polarized with lipopolysaccharide from E. coli (Sigma-Aldrich) and rhIFN-γ (Sigma-Aldrich) for another 48 h according to previously reported protocol. All cells were cultured in a humidified CO2 incubator (5% CO2, 37 °C). Primary peripheral blood mononuclear cells (PBMCs) collected from a healthy donor were purchased from American Type Culture Collection (ATCC PCS-800-011). CD4^+ T-helper and CD8^+ T cytotoxic cells were isolated from PBMCs by magnetic separation with mouse anti-human CD4-PE (clone 13B8.2, Beckman Coulter Diagnostics, Pasadena, CA, USA) and CD8-PE (clone REA734, Miltenyi Biotec, Bergisch Gladbach, Germany), Anti-PE MicroBeads (Miltenyi Biotec), and LS Separation Columns (Miltenyi Biotec). Isolated CD4^+ and CD8^+ cells were expanded separately with Dynabeads™ Human T-Expander CD3/CD28 (Gibco, Waltham, MA, USA) in RPMI-1640 supplemented with 10% FBS, 1XAAS and 100 U/mL rh-IL-2 (Gibco). Regulatory CD4^+ FoxP3^+ T cells (Tregs) were isolated from PBMCs by magnetic separation with CD4^+CD25^+ Regulatory T Cell Isolation Kit, human (Miltenyi Biotec). Primary CD14^+ blood monocytes were isolated from PBMCs by adherence according to standard technique. Monocyte-derived mature dendritic cells (moDCs) were obtained from CD14^+ blood monocytes according to the previously reported protocol. Briefly, blood monocytes were incubated in complete RPMI-1640 medium, containing 10% FBS, 1XAAS, 800 U/mL rhGM-CSF (Sci-Store, Russia, Moscow) and 500 U/mL rhIL-4 (Sci-Store) for 3 days. Fresh complete RPMI-1640 medium with rhGM-CSF and rhIL-4 was added to the culture on day 3. On day 5, fresh complete RPMI-1640 containing 100 U/mL rhTNF-α (Sigma) as well as 800 U/mL rhGM-CSF and 500 U/mL rhIL-4 was added and the culture was incubated for another 4 days until full maturation.
Caco-2 cells were seeded into the wells of a 48-well plate, coated with 0.1% bovine collagen (Sigma-Aldrich) for 24 h, 3 weeks before the experiment with complete DMEM/F12 (1:1) medium renewal every 2–3 days. Monocytes, moDCs, CD4^+ T-helper and CD8^+ T cytotoxic cells, Mφ1, and Regulatory CD4^+ FoxP3^+ T cells were seeded into the wells of 48-well plates in the complete RPMI-1640 medium supplemented with 10% Human AB serum (HABS, Capricorn Scientific, Ebsdorfergrund, Germany) and 1XAAS 24 h prior to the experiment; medium in Caco-2-containing wells was also replaced with the same medium. After 24 h, half of the medium in each well was replaced by fresh complete RPMI-1640 medium with 10% HABS, supplemented with 4 µM of Lc-def for the sample wells or fresh medium alone for the control wells. Cell cultures were kept in CO2-incubator (5% CO2, 37 °C) for another 24 h. Culture supernatants were collected 24 h later and stored at −70 °C degrees less than one month prior to the analytes assessment. […]

“Lc-def: defensin from lentil Lens culinaris seeds (UniProt:B3F051), recombinant, overexpressed in Escherichia coli (KTCENLSDSFKGPCIPDGNCNKHCKEKEHLLSGRCRDDFRCWCTRNC; disulfide (positions not given here); ends not checked; also: disulfide bonds present, pairing not given here; UniProt B3F051 28-74, looked up)” was tested, and the EGF was <1.95↓ pg/ml, the Eotaxin was <3.23↓ pg/ml and the FGF-2 was 0 pg/mL. The FLT-3L was <0.45↓ pg/ml, the Fractalkine was <23.19↓ pg/ml and the G-CSF was <2.57↓ pg/ml. The GM-CSF was <1.36↓ pg/ml, the GROa was <0.67↓ pg/ml and the IFNa2 was <4.43↓ pg/ml. For the same substance, the IFNg was <1.99↓ pg/ml, the IL-1RA was <0.83↓ pg/ml and the IL-1a was 9 pg/mL. For the same substance, the IL-1b was <18.72↓ pg/ml, the IL-2 was <0.31↓ pg/ml and the IL-3 was <0.48↓ pg/ml. The IL-4 was <0.31↓ pg/ml, the IL-5 was 9.01 pg/mL and the IL-6 was <0.30↓ pg/ml. For the same substance, the IL-7 was <0.33↓ pg/ml, the IL-8 was <0.49↓ pg/ml and the IL-9 was <1.05↓ pg/ml. For the same substance, the IL-10 was <0.68↓ pg/ml, the “IL-12 (p40)” value was <3.02↓ pg/ml and the “IL-12 (p70)” value was <1.48↓ pg/ml. For the same substance, the IL-13 was <5.00↓ pg/ml, the IL-15 was <1.45↓ pg/ml and the IL-17A was <1.55↓ pg/ml. The IL-17E/IL-25 was <20.59↓ pg/ml, the IL-17F was <16.96↓ pg/ml and the IL-18 was <0.35↓ pg/ml. The IL-22 was <8.31↓ pg/ml, the IL-27 was <8.55↓ pg/ml and the IP-10 was <1.56↓ pg/ml. The M-GSF was <23.75↓ pg/ml, the MCP-1 was <1.52↓ pg/ml and the MCP-3 was <3.95↓ pg/ml. For the same substance, the MDC was <0.35↓ pg/ml, the MIG was <3.43↓ pg/ml and the MIP-1a was <1.76↓ pg/ml. The MIP-1b was <1.92↓ pg/ml, the PDGF-AA was <7.38↓ pg/ml and the PDGF-AB/BB was <9.75↓ pg/ml. The RANTES was 366.74 pg/mL, the TGF-a was <0.66↓ pg/ml and the TNFa was <3.91↓ pg/ml. The TNFb was <0.73↓ pg/ml, the VEGFa was <1.27↓ pg/ml and the “effects on cytokine production” value was “No effects”. For the same substance, the sCD40L was <6.66↓ pg/ml.
